Test results taken from publication PMC5884943, “Discovery of Novel Inhibitors of Indoleamine 2,3-Dioxygenase 1 Through Structure-Based Virtual Screening” (Frontiers in Pharmacology, 2018).

Molecular target: T1, human IDO1 protein (Homo sapiens, UniProt P14902)
T1 construct: purchased ChemPartner Lot; No. 20160706
Assay: Enzymatic IDO1 assay (Absorbance 321 assay)
Type: biochemical
Details: for Avg_Inh (%) @ 50uM: average inhibition, Table S2; for Background (%): background signal of the compound in the absorbance assay; for inhibition at 20 µM / Inhibition ratio (%) @ 20 μM: 20 μM compound; for inhibition at 20 µM: read-out: Inhibition ratio (%) @ 20 μM
Method: The standard assay mixture contained modified potassium phosphate buffer at pH 6.5, 100 μM L-tryptophan (Sigma, Cat. […] No. […]). […] Then the assay plate was read at OD321 kinetically in Spectramax. […] Fit the data in […]5.0 software to obtain IC50-values using Equation (2): (2) Y=Bottom+Top-Bottom/1+10^(logIC50-X)×HillSlope where Y stands for inhibition percentage and X stands for compound concentration. All determinations were carried out in duplicate.

T1 sequence (P14902 whole entry): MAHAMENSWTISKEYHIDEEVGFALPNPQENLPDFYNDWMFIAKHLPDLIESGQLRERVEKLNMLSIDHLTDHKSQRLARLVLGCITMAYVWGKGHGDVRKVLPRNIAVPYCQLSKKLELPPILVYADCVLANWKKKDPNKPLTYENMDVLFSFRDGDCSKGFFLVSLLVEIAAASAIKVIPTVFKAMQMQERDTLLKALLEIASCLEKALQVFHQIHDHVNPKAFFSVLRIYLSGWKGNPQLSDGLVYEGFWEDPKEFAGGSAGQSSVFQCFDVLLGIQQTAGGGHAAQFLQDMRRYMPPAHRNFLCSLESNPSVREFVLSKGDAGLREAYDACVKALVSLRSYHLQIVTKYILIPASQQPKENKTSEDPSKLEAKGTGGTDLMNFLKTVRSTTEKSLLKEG

| Compound | Avg_Inh (%) @ 50uM | Background (%) | inhibition at 20 µM | IC50 (IDO1 enzymatic level) | Inhibition ratio (%) @ 20 μM |
| --- | --- | --- | --- | --- | --- |
| Clc1ccc2[nH]cc(-c3nnnn3-c3ccccc3)c2c1 [DCI-004] | 49.29% | 38.90% | – | – | – |
| Cc1onc(-c2ccccc2Cl)c1C(=O)Nc1cccc([N+](=O)[O-])c1 [DCI-067] | 28.06% | 37.16% | – | – | – |
| Cc1cc2ccccc2n2c(SCC(=O)Nc3ccc(S(N)(=O)=O)cc3)nnc12 [DCI-099] | 27.63% | 49.90% | – | – | – |
| CCCn1c(=O)c(C(=O)Nc2ccccc2N)c(O)c2ccccc21 [DCI-041] | 72.23% | 50.76% | – | – | – |
| O=C(CC1Nc2ccccc2NC1=O)NCc1ccccc1 (stereo not drawn) [DCI-039] | -1.03% | 36.31% | – | – | – |
| O=C(NC(=S)Nc1c(O)ccc2ccccc12)c1ccccc1I [DC-I02807] | – | – | 59.6% | 25 µM | – |
| O=C(COc1ccc2ccccc2c1)Nc1cccc(Cl)c1 [DCI-086] | 77.96% | 50.53% | – | – | – |
| COc1ccc2oc(C(O)c3c(C)oc4ccc(OC)cc34)cc2c1 (stereo not drawn) [DCI-056] | 55.55% | 43.42% | – | – | – |
| CC(=O)N(C)c1ccc(-c2c(O)ccc3ccccc23)cc1 [DC-I02812] | – | – | 4.69% | – | – |
| Nc1ccc(Br)cc1C(O)c1ccc(Cl)cc1 (stereo not drawn) [DC-I032] | 63.02% | 33.85% | – | – | 25.26% |
| Cc1cc(C)c2c(=O)cc(C(=O)Nc3cc(-c4ccc(F)cc4)no3)oc2c1 [DCI-060] | 79.74% | 59.25% | – | – | – |
| O=C(OCc1ccc(Cl)cc1)c1cc2ccccc2cc1O [DCI-003] | 35.38% | 51.94% | – | – | – |
| Cc1sc2nn[nH]c(=O)c2c1C [DCI-027] | 43.67% | 56.25% | – | – | – |
| Cc1cc(C)c(S(=O)(=O)N2CCC(C(N)=O)CC2)cc1C [DCI-087] | -2.50% | 34.87% | – | – | – |
| Cc1ccc([N+](=O)[O-])cc1NC(=O)COc1ccc2ccccc2c1Br [DCI-083] | 40.17% | 40.73% | – | – | – |
| O=[N+]([O-])C1C(O)c2ccccc2OC1c1ccccc1 (stereo not drawn) [DCI-031] | 13.99% | 39.14% | – | – | – |
| c1ccc(CNCC2OCCc3ccccc32)cc1 (stereo not drawn) [DCI-101] | -0.96% | 35.16% | – | – | – |
| Cc1cc(=O)c2ccc(C(F)(F)F)cc2[nH]1 [DCI-038] | 6.52% | 60.07% | – | – | – |
| Cc1cc(=O)oc2cc(OCC(O)Cn3c(C)nc4ccccc43)ccc12 (stereo not drawn) [DCI-094] | -10.06% | 75.33% | – | – | – |
| COc1ccc(C(N)=O)cc1NS(=O)(=O)c1cccc2cccnc12 [DCI-016] | 5.08% | 38.92% | – | – | – |
| CCCc1[nH]nc2c1C(c1cccc(O)c1)C(C#N)=C(N)O2 (stereo not drawn) [DCI-043] | 1.84% | 30.60% | – | – | – |
| CCCCOc1cccc(-c2c(O)ccc3ccccc23)c1 [DC-I02811] | – | – | 8.19% | – | – |
| O=C1OC(c2ccccc2)c2ccc3ccccc3c21 (stereo not drawn) [DCI-042] | 59.00% | 48.79% | – | – | – |

| Compound | Avg_Inh (%) @ 50uM | Background (%) | inhibition at 20 µM | IC50 (IDO1 enzymatic level) | Inhibition ratio (%) @ 20 μM |
| --- | --- | --- | --- | --- | --- |
| O=c1cc(NCCN2CCCC2)c2ccccc2o1 [DCI-047] | -3.88% | 42.54% | – | – | – |
| CC(=O)c1[nH]c2ccccc2c1C(C)=O [DCI-053] | 3.68% | 43.33% | – | – | – |
| COc1ccc(C(=O)NC(=S)Nc2cccc3cc(O)ccc23)cc1OC [DC-I02809] | – | – | 17.6% | – | – |
| O=C(NCCc1cccc(Cl)c1)c1cccc2ccccc12 [DCI-104] | 25.72% | 41.51% | – | – | – |
| O=C1NN(c2ncnc3sc4c(c23)CCCC4)C(=O)c2cccc3cccc1c23 [DCI-064] | 6.57% | 36.33% | – | – | – |
| O=c1[nH]c(CN2CCOCC2)nc2ccccc12 [DCI-081] | -6.95% | 38.30% | – | – | – |
| O=c1/c(=C/c2c(O)ccc3ccccc23)sc2n1CCCN=2 [DCI-073] | 64.05% | 54.63% | – | – | – |
| CC(C)(C)NC(=O)Cc1coc2ccc3ccccc3c12 [DCI-071] | 22.41% | 39.05% | – | – | – |
| O=C1c2ccccc2NC(c2cccc([N+](=O)[O-])c2)N1O (stereo not drawn) [DCI-058] | 4.69% | 37.75% | – | – | – |
| CCCC1CCc2c(c3ccccc3[nH]c2=O)O1 (stereo not drawn) [DCI-030] | 11.57% | 45.02% | – | – | – |
| CC(O)CNCc1ccc(OCc2ccc3c(c2)OCCO3)cc1 (stereo not drawn) [DCI-018] | -2.06% | 34.42% | – | – | – |
| O=C(NCCCNC(=O)c1cc2ccccc2[nH]1)c1ccc(F)cc1 [DCI-034] | 5.04% | 42.24% | – | – | – |
| O=c1cnc2ccccc2n1Cc1cccc(Cl)c1 [DCI-010] | 18.26% | 46.13% | – | – | – |
| Cc1cccc(NC(=S)NC(=O)c2cc3ccccc3o2)n1 [DCI-036] | 76.32% | 74.58% | – | – | – |
| COc1ccc(C(=O)c2c[nH]cc2-c2ccccc2)cc1 [DCI-059] | 17.41% | 49.85% | – | – | – |
| COc1cc(C(=O)Nc2ccc(S(N)(=O)=O)cc2)cc(OC)c1OC [DCI-088] | -0.32% | 43.06% | – | – | – |
| O=C(CSc1ncnc2sc3c(c12)CCC3)Nc1ccccc1 [DCI-061] | 63.45% | 54.35% | – | – | – |
| O=C(CSc1nnc(COc2ccc(Cl)cc2Cl)o1)Nc1ccccn1 [DC-I090] | 95.14% | 34.84% | – | – | 41.43% |
| CCc1ccc(OCC(=O)Nc2ccccc2C(N)=O)c(Br)c1 [DCI-074] | 21.71% | 35.63% | – | – | – |
| COc1ccc(/C=C\c2nccc3ccccc23)cc1OC [DCI-011] | 2.22% | 51.96% | – | – | – |
| COc1cc2c(cc1OC)C(c1ccc(Br)cc1)OCC2 (stereo not drawn) [DCI-022] | 34.49% | 44.32% | – | – | – |
| Cc1cccc(C)c1N1CC(C(=O)Nc2cccc3ccccc23)CC1=O (stereo not drawn) [DCI-020] | 10.24% | 35.53% | – | – | – |
| COc1cc(C)c(Cl)cc1S(=O)(=O)Nc1cccc(C)c1C [DCI-070] | 46.52% | 35.28% | – | – | – |

| Compound | Avg_Inh (%) @ 50uM | Background (%) | inhibition at 20 µM | IC50 (IDO1 enzymatic level) | Inhibition ratio (%) @ 20 μM |
| --- | --- | --- | --- | --- | --- |
| CCn1c(SCC(=O)Nc2ccccc2[N+](=O)[O-])nnc1-c1ccc(O)cc1 [DCI-068] | 5.69% | 35.54% | – | – | – |
| O=C(O)c1ccc(Cn2nnc3cc4ccccc4cc32)cc1 [DCI-080] | -3.23% | 48.38% | – | – | – |
| COc1ccc2ccccc2c1/C=C(\C#N)c1nc2ccccc2[nH]1 [DCI-026] | 98.78% | 66.01% | – | – | – |
| Cc1ccc(C)c(NS(=O)(=O)c2ccc3ccccc3c2)c1 [DCI-096] | 58.68% | 49.37% | – | – | – |
| Cc1sc2ncnc(SCC(=O)Nc3ccc(S(N)(=O)=O)cc3)c2c1C [DCI-017] | 37.65% | 48.33% | – | – | – |
| Cc1oc2ccc(O)cc2c1C(=O)c1ccc(Br)cc1 [DCI-057] | 67.78% | 57.09% | – | – | – |
| N#CCn1nc(-c2ccc(Cl)cc2)c2c1-c1ccccc1C2 [DCI-077] | 51.64% | 57.47% | – | – | – |
| CC(=O)Nc1ccc(NC(=O)C2CC(=O)N(c3ccccc3)C2)cc1 (stereo not drawn) [DCI-006] | 2.62% | 34.97% | – | – | – |
| CCC(C(=O)Nc1cccc(C(C)O)c1)c1ccccc1 (stereo not drawn) [DCI-082] | -2.26% | 35.32% | – | – | – |
| CC(C)c1ccc(O)c(C(=O)c2cnn(-c3ccccc3)c2)c1 [DCI-024] | 45.39% | 56.24% | – | – | – |
| COc1ccc(C2C(C#N)=C(N)Oc3n[nH]c(-c4ccc(Cl)cc4)c32)cc1O (stereo not drawn) [DCI-098] | 4.10% | 35.87% | – | – | – |
| N#Cc1c(SCC(N)=O)nc2c(c1-c1cccnc1)CCC2 [DCI-007] | -0.85% | 44.80% | – | – | – |
| Cc1nc2ccccc2cc1C(=O)N/N=C/c1cccc(Cl)c1 [DCI-065] | 26.49% | 68.09% | – | – | – |
| Cc1cc(C)c2c(N)c(C(=O)Nc3ccc(S(N)(=O)=O)cc3)sc2n1 [DCI-078] | -8.99% | 62.57% | – | – | – |
| O=C(Cc1coc2ccc3ccccc3c12)N1CCCC1 [DCI-095] | -1.55% | 43.56% | – | – | – |
| Nc1ccccc1/C=C1/C(=O)Nc2ccccc21 [DCI-009] | 12.24% | 52.98% | – | – | – |
| Oc1cccc(C(O)CNCc2c(Cl)cccc2Cl)c1 (stereo not drawn) [DCI-052] | 3.32% | 31.34% | – | – | – |
| COc1ccc2nc(C(C)O)[nH]c2c1 (stereo not drawn) [DCI-097] | -2.09% | 37.58% | – | – | – |
| Cc1cc(-c2cccs2)c2c(N)c(C(=O)NCCc3c[nH]c4ccccc34)sc2n1 [DC-I079] | 85.60% | 60.62% | – | – | 36.42% |
| Cc1cc(=O)oc2cc(OCCSc3ccccc3)ccc12 [DCI-012] | 42.86% | 56.72% | – | – | – |
| O=[N+]([O-])c1ccccc1Sc1c(O)ccc2ccccc12 [DCI-072] | 74.65% | 49.90% | – | – | – |
| Cc1ccc(C(C)C)cc1C(=O)CC1(O)C(=O)N(C)c2ccc(Br)cc21 (stereo not drawn) [DCI-014] | 28.34% | 41.98% | – | – | – |
| COc1ccc2ccccc2c1CNc1ncn[nH]1 [DCI-092] | 1.56% | 40.57% | – | – | – |
